In brackets after ≈: the same amount, converted by molar mass.
Assays:
Staphylococcus aureus [1] = test: Antibacterial activity against methicillin-resistant Staphylococcus aureus assessed as zone of inhibition at 1 mg/disc after 24 hrs by disc diffusion method; assay type: functional
Proteus vulgaris [2] = test: Antibacterial activity against Proteus vulgaris MTCC 1771 assessed as zone of inhibition at 1 mg/disc after 24 hrs by disc diffusion method; assay type: functional
Staphylococcus aureus [3] = test: Antibacterial activity against methicillin-resistant Staphylococcus aureus assessed as inhibition of visual growth after 24 hrs; assay type: functional
[4] = system: Staphylococcus epidermidis; test: Antibacterial activity against Staphylococcus epidermidis MTCC 3615 assessed as inhibition of visual growth after 24 hrs; assay type: functional; settings: MTCC 3615, 24 h
Klebsiella aerogenes [5] = test: Antibacterial activity against Enterobacter aerogenes MTCC 111 assessed as inhibition of visual growth after 24 hrs; assay type: functional; settings: MTCC 111, 24 h
Micrococcus luteus [6] = test: Antibacterial activity against Micrococcus luteus MTCC 106 assessed as zone of inhibition at 1 mg/disc after 24 hrs by disc diffusion method; assay type: functional
Candida albicans [7] = test: Antifungal activity against Candida albicans MTCC 227 assessed as zone of inhibition at 1 mg/disc after 48 hrs by disc diffusion method; assay type: functional
Micrococcus luteus [8] = test: Antibacterial activity against Micrococcus luteus MTCC 106 assessed as inhibition of visual growth after 24 hrs; assay type: functional; settings: MTCC 106, 24 h
Shigella flexneri [9] = test: Antibacterial activity against Shigella flexneri MTCC 1457 assessed as inhibition of visual growth after 24 hrs; assay type: functional; settings: MTCC 1457, 24 h
Klebsiella pneumoniae [10] = test: Antibacterial activity against Klebsiella pneumoniae MTCC 109 assessed as inhibition of visual growth after 24 hrs; assay type: functional; settings: MTCC 109, 24 h
Candida albicans [11] = test: Antifungal activity against Candida albicans MTCC 227 assessed as inhibition of visual growth after 48 to 72 hrs; assay type: functional
Klebsiella aerogenes [12] = test: Antibacterial activity against Enterobacter aerogenes MTCC 111 assessed as zone of inhibition at 1 mg/disc after 24 hrs by disc diffusion method; assay type: functional
[13] = system: Staphylococcus epidermidis; test: Antibacterial activity against Staphylococcus epidermidis MTCC 3615 assessed as zone of inhibition at 1 mg/disc after 24 hrs by disc diffusion method; assay type: functional
Salmonella typhimurium [14] = test: Antibacterial activity against Salmonella typhimurium MTCC 1251 assessed as zone of inhibition at 1 mg/disc after 24 hrs by disc diffusion method; assay type: functional, Salmonella enterica subsp. enterica serovar Typhimurium
Malassezia pachydermatis [15] = test: Antifungal activity against Malassezia pachydermatis assessed as zone of inhibition at 1 mg/disc after 48 hrs by disc diffusion method; assay type: functional
Shigella flexneri [16] = test: Antibacterial activity against Shigella flexneri MTCC 1457 assessed as zone of inhibition at 1 mg/disc after 24 hrs by disc diffusion method; assay type: functional
Salmonella typhimurium [17] = test: Antibacterial activity against Salmonella typhimurium MTCC 1251 assessed as inhibition of visual growth after 24 hrs; assay type: functional, Salmonella enterica subsp. enterica serovar Typhimurium; settings: Salmonella enterica, MTCC 1251, 24 h
Klebsiella pneumoniae [18] = test: Antibacterial activity against Klebsiella pneumoniae MTCC 109 assessed as zone of inhibition at 1 mg/disc after 24 hrs by disc diffusion method; assay type: functional
Staphylococcus aureus [19] = test: Antibacterial activity against Staphylococcus aureus MTCC 96 assessed as zone of inhibition at 1 mg/disc after 24 hrs by disc diffusion method; assay type: functional
Staphylococcus aureus [20] = test: Antibacterial activity against Staphylococcus aureus MTCC 96 assessed as inhibition of visual growth after 24 hrs; assay type: functional; settings: MTCC 96, 24 h
Proteus vulgaris [21] = test: Antibacterial activity against Proteus vulgaris MTCC 1771 assessed as inhibition of visual growth after 24 hrs; assay type: functional; settings: MTCC 1771, 24 h
Malassezia pachydermatis [22] = test: Antifungal activity against Malassezia pachydermatis assessed as inhibition of visual growth after 48 to 72 hrs; assay type: functional

Row | SMILES | inhibition zone (IZ) (Staphylococcus aureus [1]) [mm] | inhibition zone (IZ) (Proteus vulgaris [2]) [mm] | MIC (Staphylococcus aureus [3]) [µg/mL] | MIC [4] [µg/mL] | MIC (Klebsiella aerogenes [5]) [µg/mL] | inhibition zone (IZ) (Micrococcus luteus [6]) [mm] | inhibition zone (IZ) (Candida albicans [7]) [mm] | MIC (Micrococcus luteus [8]) [µg/mL] | MIC (Shigella flexneri [9]) [µg/mL] | MIC (Klebsiella pneumoniae [10]) [µg/mL] | MIC (Candida albicans [11]) [µg/mL] | inhibition zone (IZ) (Klebsiella aerogenes [12]) [mm] | inhibition zone (IZ) [13] [mm] | inhibition zone (IZ) (Salmonella typhimurium [14]) [mm] | inhibition zone (IZ) (Shigella flexneri [16]) [mm] | MIC (Salmonella typhimurium [17]) [µg/mL] | inhibition zone (IZ) (Klebsiella pneumoniae [18]) [mm] | inhibition zone (IZ) (Staphylococcus aureus [19]) [mm] | MIC (Staphylococcus aureus [20]) [µg/mL] | MIC (Proteus vulgaris [21]) [µg/mL] | further results
1 | C=CCN1C(=O)[C@]2(c3ccccc31)[C@H](c1cn(-c3ccccc3)nc1-c1ccccc1)[C@@](C#N)(C(=O)c1c[nH]c3ccccc13)C1CSCN12 (some centres undefined) | 9 | 10 | 500 (≈ 743 µM) | 125 (≈ 186 µM) | 250 (≈ 372 µM) | 11 | 12 | 500 (≈ 743 µM) | 500 (≈ 743 µM) | 500 (≈ 743 µM) | 250 (≈ 372 µM) | 9 | 11 | 10 | 9 | 250 (≈ 372 µM) | 9 | 12 | 250 (≈ 372 µM) | 500 (≈ 743 µM) | inhibition zone (IZ) (Malassezia pachydermatis [15]): 10 mm
2 | CN1C[C@](C#N)(C(=O)c2c[nH]c3ccccc23)[C@@H](c2cn(-c3ccccc3)nc2-c2ccccc2)[C@@]12C(=O)Nc1ccc([N+](=O)[O-])cc12 | 18 | 14 | 125 (≈ 197 µM) | 500 (≈ 789 µM) | 500 (≈ 789 µM) | 18 | 13 | 250 (≈ 395 µM) |  | 500 (≈ 789 µM) | 250 (≈ 395 µM) | 15 | 15 | 12 | 20 | 500 (≈ 789 µM) | 17 | 19 | 250 (≈ 395 µM) | 250 (≈ 395 µM) | MIC (Malassezia pachydermatis [22]): 500 µg/mL (≈ 789 µM); inhibition zone (IZ) (Malassezia pachydermatis [15]): 8 mm
3 | CN1C(=O)[C@]2(c3ccccc31)[C@H](c1cn(-c3ccccc3)nc1-c1ccccc1)[C@@](C#N)(C(=O)c1c[nH]c3ccccc13)C1CSCN12 (some centres undefined) |  |  |  | 125 (≈ 193 µM) | 500 (≈ 773 µM) |  |  | 250 (≈ 387 µM) |  | 500 (≈ 773 µM) |  |  |  |  |  | 500 (≈ 773 µM) |  |  | 500 (≈ 773 µM) | 500 (≈ 773 µM) | 
4 | CN1C(=O)[C@]2(c3ccccc31)[C@H](c1cn(-c3ccccc3)nc1-c1ccccc1)[C@@](C#N)(C(=O)c1c[nH]c3ccccc13)C1CCCN12 (some centres undefined) | 10 | 12 | 125 (≈ 199 µM) | 250 (≈ 398 µM) | 250 (≈ 398 µM) | 8 |  | 500 (≈ 795 µM) | 250 (≈ 398 µM) | 500 (≈ 795 µM) |  | 10 | 12 | 13 | 9 | 500 (≈ 795 µM) | 11 | 9 | 250 (≈ 398 µM) | 250 (≈ 398 µM) | 
5 | CCCCN1C(=O)[C@]2(c3ccccc31)[C@H](c1cn(-c3ccccc3)nc1-c1ccccc1)[C@@](C#N)(C(=O)c1c[nH]c3ccccc13)C1CSCN12 (some centres undefined) |  |  | 500 (≈ 726 µM) | 250 (≈ 363 µM) | 500 (≈ 726 µM) | 10 |  | 250 (≈ 363 µM) | 500 (≈ 726 µM) | 500 (≈ 726 µM) | 125 (≈ 181 µM) | 9 | 10 | 9 |  | 250 (≈ 363 µM) | 9 | 8 | 250 (≈ 363 µM) | 500 (≈ 726 µM) | MIC (Malassezia pachydermatis [22]): 125 µg/mL (≈ 181 µM)
6 | N#C[C@]1(C(=O)c2c[nH]c3ccccc23)C2CCCN2[C@]2(C(=O)Nc3ccc(Cl)cc32)[C@@H]1c1cn(-c2ccccc2)nc1-c1ccccc1 (some centres undefined) | 8 | 10 |  |  |  | 9 | 13 |  |  |  |  | 8 | 8 | 8 | 10 |  | 9 | 9 |  |  | inhibition zone (IZ) (Malassezia pachydermatis [15]): 11 mm
7 | N#C[C@]1(C(=O)c2c[nH]c3ccccc23)C2CSCN2[C@]2(C(=O)N(Cc3ccccc3)c3ccccc32)[C@@H]1c1cn(-c2ccccc2)nc1-c1ccccc1 (some centres undefined) |  | 10 | 500 (≈ 692 µM) | 125 (≈ 173 µM) | 250 (≈ 346 µM) |  |  | 250 (≈ 346 µM) | 500 (≈ 692 µM) | 250 (≈ 346 µM) | 500 (≈ 692 µM) |  |  |  |  | 250 (≈ 346 µM) |  |  | 62.5 (≈ 86.5 µM) | 500 (≈ 692 µM) | MIC (Malassezia pachydermatis [22]): 500 µg/mL (≈ 692 µM)
8 | C#CCN1C(=O)[C@]2(c3ccccc31)[C@H](c1cn(-c3ccccc3)nc1-c1ccccc1)[C@@](C#N)(C(=O)c1c[nH]c3ccccc13)C1CCCN12 (some centres undefined) | 8 | 13 | 250 (≈ 383 µM) | 125 (≈ 191 µM) | 250 (≈ 383 µM) | 10 | 10 | 500 (≈ 766 µM) | 500 (≈ 766 µM) | 250 (≈ 383 µM) |  | 12 | 11 | 10 | 8 | 125 (≈ 191 µM) | 12 | 10 | 500 (≈ 766 µM) | 250 (≈ 383 µM) | inhibition zone (IZ) (Malassezia pachydermatis [15]): 9 mm
9 | C=CCN1C(=O)[C@]2(c3ccccc31)[C@H](c1cn(-c3ccccc3)nc1-c1ccccc1)[C@@](C#N)(C(=O)c1c[nH]c3ccccc13)C1CCCN12 (some centres undefined) |  | 10 | 250 (≈ 382 µM) | 125 (≈ 191 µM) | 250 (≈ 382 µM) |  |  | 250 (≈ 382 µM) | 250 (≈ 382 µM) | 500 (≈ 764 µM) | 250 (≈ 382 µM) |  |  | 10 |  | 500 (≈ 764 µM) | 9 |  | 125 (≈ 191 µM) | 250 (≈ 382 µM) | MIC (Malassezia pachydermatis [22]): 500 µg/mL (≈ 764 µM)
10 | CN1C[C@](C#N)(C(=O)c2c[nH]c3ccccc23)[C@@H](c2cn(-c3ccccc3)nc2-c2ccccc2)[C@@]12C(=O)N(Cc1ccccc1)c1ccccc12 | 8 | 10 | 500 (≈ 737 µM) | 500 (≈ 737 µM) | 500 (≈ 737 µM) | 9 | 8 | 500 (≈ 737 µM) |  | 250 (≈ 368 µM) | 500 (≈ 737 µM) | 10 | 8 |  |  |  | 11 | 9 | 500 (≈ 737 µM) | 250 (≈ 368 µM) | MIC (Malassezia pachydermatis [22]): 500 µg/mL (≈ 737 µM); inhibition zone (IZ) (Malassezia pachydermatis [15]): 9 mm
11 | CCCCN1C(=O)[C@]2(c3ccccc31)[C@H](c1cn(-c3ccccc3)nc1-c1ccccc1)[C@@](C#N)(C(=O)c1c[nH]c3ccccc13)C1CCCN12 (some centres undefined) | 12 | 10 | 500 (≈ 745 µM) | 62.5 (≈ 93.2 µM) | 500 (≈ 745 µM) | 9 |  | 500 (≈ 745 µM) |  | 250 (≈ 373 µM) | 500 (≈ 745 µM) | 11 | 10 | 8 | 10 | 125 (≈ 186 µM) | 9 | 11 | 125 (≈ 186 µM) | 250 (≈ 373 µM) | 
12 | C#CCN1C(=O)[C@]2(c3ccccc31)[C@H](c1cn(-c3ccccc3)nc1-c1ccccc1)[C@@](C#N)(C(=O)c1c[nH]c3ccccc13)C1CSCN12 (some centres undefined) | 13 | 9 |  |  |  | 8 |  |  |  |  |  |  |  |  | 14 |  |  |  |  |  | 
13 | C#CCN1C(=O)[C@]2(c3ccccc31)[C@H](c1cn(-c3ccccc3)nc1-c1ccccc1)[C@@](C#N)(C(=O)c1c[nH]c3ccccc13)CN2C | 8 | 8 | 500 (≈ 798 µM) | 250 (≈ 399 µM) | 250 (≈ 399 µM) | 8 | 10 | 500 (≈ 798 µM) |  | 250 (≈ 399 µM) | 125 (≈ 199 µM) | 10 | 10 |  |  |  | 10 | 9 | 500 (≈ 798 µM) | 500 (≈ 798 µM) | MIC (Malassezia pachydermatis [22]): 500 µg/mL (≈ 798 µM); inhibition zone (IZ) (Malassezia pachydermatis [15]): 8 mm
